Experimental data from patent US20130072505A1, “6,9-Disubstituted Purine Derivatives and Their Use for Treating Skin” (priority 2006, published 2013).
Marks after values point to notes of the source that are not given here.

Test system: photodamaged facial skin
Experiment: clinical study of topical treatment of photodamaged facial skin, 12 weeks
Format: in vivo, human
Conditions: for investigator's assessment of overall improvement in skin condition (relative to baseline): 6-point scale (1=excellent improvement to 5=no improvement; 6=worse); for investigator's assessment of overall skin condition: 10 point scale (0=None; 1-3=Mild; 4-6=Moderate; 7-9=Severe); for Mean Improvement from Baseline: TEWL / Mean Improvement from Baseline: Coarse Wrinkles / Mean Improvement from Baseline: Fine Wrinkles / Mean Improvement from Baseline: Mottled Hyperpigmentation / Mean Improvement from Baseline: Overall Skin Condition / Mean Improvement from Baseline: Roughness / Subjects Reporting Improvement from Baseline: Blotchiness / Subjects Reporting Improvement from Baseline: Color / Subjects Reporting Improvement from Baseline: Fine Wrinkles / Subjects Reporting Improvement from Baseline: Texture: 0.10% topical; for Mean Improvement from Baseline: Coarse Wrinkles / Mean Improvement from Baseline: Fine Wrinkles / Mean Improvement from Baseline: Mottled Hyperpigmentation / Mean Improvement from Baseline: Overall Skin Condition / Mean Improvement from Baseline: Roughness: expert evaluation; for Skin Moisture / TEWL: 0.10% in MillCreek Lotion twice daily
Source text: A clinical study has been conducted to determine the cosmetic efficacy and subjects' tolerance of topical 6-furfurylamino-9-(2-tetrahydropyranyl)purine (0.10%) applied twice daily for 12 weeks to improve the clinical signs and symptoms of photodamaged facial skin. Forty female volunteer subjects age 40 to 65 with mild to moderate signs of photo damaged facial skin were enroled in the study. Thirty four subjects competed the study; the mean age of subjects competing the study was about 54 years. Subjects were instructed to apply the test product to the entire facial skin twice daily (i.e., early morning and approximately 1 hour before bedtime) for 12 consecutive weeks. Subjects were also instructed that, other than sunscreens or mild cleansers and use of color cosmetics, no other topical skin care products or medications were to be used on the face during the study. The test product comprised 0.1 percent 6-furfurylamino-9-(2-tetrahydropyranyl)purine in MillCreek Lotion as vehicle.
Subjects were assessed at weeks 2, 4, 8, and 12. The treated facial skin was evaluated for clinical signs of skin aging (e.g., coarse and fine wrinkles, roughness, mottled hyperpigmentation) at study entry (baseline) as well as 2, 4, 8 and 12 weeks. The subjects' self-assessment of improvement over baseline (wrinkles, texture, blotchiness, color, and overall improvement) were also obtained. In addition, transepidermal water loss (TEWL) and skin moisture measurements were taken on the cheeks of all subjects.
TEWL refers to the amount of water vapor loss through the stratum corneum. […] TEWL measurements were taken using a TEWL meter (Courage & Khazaka, Köln, Germany) having composed of a probe (containing humidity and temperature sensors) connected to a central processing unit. For each subject, the probe was placed in the center of both cheeks and measurements taken in duplicate.
An indirect measurement of the skin's moisture content was made by measuring changes in the skin's electrical properties. Impedance based capacitance measurements were taken on the skin using a NOVA DPM 9003® (NOVA Technologies, Gloucester, Mass., USA). The instrument performs measurements at varying preselected frequencies (up to 1 MHz) of the applied alternating current. A value directly related to capacitance is determined in arbitrary units; a higher value indicates a greater capacitance which indicates an increased level of moisture at the test site. Measurements in triplicate were taken in the center of both cheeks for each test subject.
At the baseline (Day 0) visit, an investigator evaluated each subject's face for the presence of fine wrinkles, coarse wrinkles, roughness, mottled hyperpigmentation, and other parameters using a five-point scale (0=None; 1=Minimal; 2=Mild; 3=Moderate; and 4=Severe). The overall severity of skin photodamage (wrinkles, roughness and mottled hyperpigmentation) was evaluated using a 10 point scale (0=None; 1-3=Mild; 4-6=Moderate; and 7-9=Severe); subjects with baseline severity scores greater than 6 were excluded from the study.
On each subsequent visit, the investigator evaluated overall improvement compared to baseline using a 6-point scale (1=excellent improvement; 2=marked improvement; 3=moderate improvement; 4=slight improvement; 5=no improvement; and 6=worse).
At each subsequent visit, the subjects were asked to complete a self-assessment questionnaire to assess the improvement from baseline for skin texture, skin color, blotchiness (i.e., brown spots), fine wrinkles; and overall improvement using a five-point scale (1=much improved; 2=somewhat improved; 3=no change; 4=somewhat worse; and 5=much worse).
This Example compares the clinical data for topically applied 6-furfurylamino-9-(2-tetrahydropyranyl)purine (0.10%) taken from Example 23 with similar clinical data generated for topically applied kinetin (0.1%) from an earlier study. […]

[1] = Eight Week Data, self assessment
[2] = Twelve Week Data, self assessment
[3] = Week 2, investigator, five-point scale 0=None to 4=Severe
[4] = Week 2, subjects' self assessment, five-point scale 1=much improved to 5=much worse
[5] = Week 4, investigator, five-point scale 0=None to 4=Severe
[6] = Week 4, subjects' self assessment, five-point scale 1=much improved to 5=much worse
[7] = Week 8, investigator, five-point scale 0=None to 4=Severe
[8] = Week 8, subjects' self assessment, five-point scale 1=much improved to 5=much worse
[9] = Week 12, investigator, five-point scale 0=None to 4=Severe
[10] = Week 12, subjects' self assessment, five-point scale 1=much improved to 5=much worse

c1coc(CNc2ncnc3c2ncn3C2CCCCO2)c1 (centres unmarked) [6-furfurylamino-9-(2-tetrahydropyranyl)purine]
overall skin condition, change relative to baseline (2 weeks): −1.22%
investigator's assessment of overall improvement in skin condition (relative to baseline) (2 weeks): 4.95
investigator's assessment of overall skin condition (2 weeks): 4.05
overall improvement, change relative to 2 week data (4 weeks): −10.61%
overall skin condition, change relative to baseline (4 weeks): −15.23%
investigator's assessment of overall improvement in skin condition (relative to baseline) (4 weeks): 4.44
investigator's assessment of overall skin condition (4 weeks): 3.56
overall improvement, change relative to 2 week data (8 weeks): −16.67%
overall skin condition, change relative to baseline (8 weeks): −24.32%
investigator's assessment of overall improvement in skin condition (relative to baseline) (8 weeks): 4.11
investigator's assessment of overall skin condition (8 weeks): 3.20
overall improvement, change relative to 2 week data (12 weeks): −17.16%
overall skin condition, change relative to baseline (12 weeks): −27.97%
investigator's assessment of overall improvement in skin condition (relative to baseline) (12 weeks): 4.12
investigator's assessment of overall skin condition (12 weeks): 3.03
Mean Improvement from Baseline: TEWL (Eight Week Data): 1%
Mean Improvement from Baseline: Coarse Wrinkles (Eight Week Data): 7%
Mean Improvement from Baseline: Fine Wrinkles (Eight Week Data): 22%*
Mean Improvement from Baseline: Mottled Hyperpigmentation (Eight Week Data): 31%*
Mean Improvement from Baseline: Overall Skin Condition (Eight Week Data): 24%*
Mean Improvement from Baseline: Roughness (Eight Week Data): 86%*
Subjects Reporting Improvement from Baseline: Blotchiness [1]: 60%
Subjects Reporting Improvement from Baseline: Color [1]: 66%
Subjects Reporting Improvement from Baseline: Fine Wrinkles [1]: 83%
Subjects Reporting Improvement from Baseline: Texture [1]: 83%
Mean Improvement from Baseline: TEWL (Twelve Week Data): 28%
Mean Improvement from Baseline: Coarse Wrinkles (Twelve Week Data): 14%*
Mean Improvement from Baseline: Fine Wrinkles (Twelve Week Data): 28%*
Mean Improvement from Baseline: Mottled Hyperpigmentation (Twelve Week Data): 41%*
Mean Improvement from Baseline: Overall Skin Condition (Twelve Week Data): 28%*
Mean Improvement from Baseline: Roughness (Twelve Week Data): 84%*
Subjects Reporting Improvement from Baseline: Blotchiness [2]: 63%
Subjects Reporting Improvement from Baseline: Color [2]: 68%
Subjects Reporting Improvement from Baseline: Fine Wrinkles [2]: 88%
Subjects Reporting Improvement from Baseline: Texture [2]: 88%
Acne Change Relative to Baseline (Week 2): −4.00%
Coarse Wrinkles Change Relative to Baseline (Week 2): 4.44%
Erythema Change Relative to Baseline (Week 2): −33.33%
Mottled Hyperpigmentation Change Relative to Baseline (Week 2): −1.45%
Roughness Change Relative to Baseline (Week 2): −37.31%
Skin Irritation Change Relative to Baseline (Week 2): 0
Skin Moisture Change Relative to Baseline (Week 2): 6.22%
TEWL Change Relative to Baseline (Week 2): −1.98%
Skin Moisture (Week 2): 125.37* arbitrary units
TEWL (Week 2): 12.89 g/m^2/hr
Fine Wrinkles Change Relative to Baseline (Week 2, investigator): −1.28%
Acne [3]: 0.60
Coarse Wrinkles [3]: 2.35
Erythema [3]: 0.40^††
Fine Wrinkles [3]: 2.18
Mottled Hyperpigmentation [3]: 1.70
Roughness [3]: 1.05*
Skin Irritation [3]: 0
Blotchiness/Brown Spots [4]: 2.70
Fine Wrinkles [4]: 2.62
Overall Improvement [4]: 2.36
Skin Color [4]: 2.74
Skin Texture [4]: 2.21
Acne Change Relative to Baseline (Week 4): −13.64%
Coarse Wrinkles Change Relative to Baseline (Week 4): −4.76%
Erythema Change Relative to Baseline (Week 4): −47.62%
Mottled Hyperpigmentation Change Relative to Baseline (Week 4): −15.63%
Roughness Change Relative to Baseline (Week 4): −63.79%
Skin Irritation Change Relative to Baseline (Week 4): 0
Skin Moisture Change Relative to Baseline (Week 4): 20.96%
TEWL Change Relative to Baseline (Week 4): −9.62%
Skin Moisture (Week 4): 141.30* arbitrary units
TEWL (Week 4): 11.70* g/m^2/hr
Fine Wrinkles Change Relative to Baseline (Week 4, investigator): −11.25%
Acne [5]: 0.53
Coarse Wrinkles [5]: 2.22
Erythema [5]: 0.31*
Fine Wrinkles [5]: 1.97*
Mottled Hyperpigmentation [5]: 1.50*
Roughness [5]: 0.58*
Skin Irritation [5]: 0
Blotchiness/Brown Spots Change Relative to 2 Week Data (Week 4, self assessment): −6.19%
Fine Wrinkles Change Relative to 2 Week Data (Week 4, self assessment): −18.68%
Skin Color Change Relative to 2 Week Data (Week 4, self assessment): −5.32%
Skin Texture Change Relative to 2 Week Data (Week 4, self assessment): −8.97%
overall improvement, change relative to 2 week data (Week 4, self assessment): −6.17%
Blotchiness/Brown Spots [6]: 2.58
Fine Wrinkles [6]: 2.11*
Overall Improvement [6]: 2.14
Skin Color [6]: 2.50*
Skin Texture [6]: 2.03*
Acne Change Relative to Baseline (Week 8): −9.52%
Coarse Wrinkles Change Relative to Baseline (Week 8): −7.23%
Erythema Change Relative to Baseline (Week 8): −66.67%
Mottled Hyperpigmentation Change Relative to Baseline (Week 8): −30.65%
Roughness Change Relative to Baseline (Week 8): −85.71%
Skin Irritation Change Relative to Baseline (Week 8): 0
Skin Moisture Change Relative to Baseline (Week 8): 35.10%
TEWL Change Relative to Baseline (Week 8): 0.11%
Skin Moisture (Week 8): 158.04* arbitrary units
TEWL (Week 8): 13.08 g/m^2/hr
Fine Wrinkles Change Relative to Baseline (Week 8, investigator): −21.79%
Acne [7]: 0.53
Coarse Wrinkles [7]: 2.20
Erythema [7]: 0.20*
Fine Wrinkles [7]: 1.74*
Mottled Hyperpigmentation [7]: 1.23*
Roughness [7]: 0.23*
Skin Irritation [7]: 0
Blotchiness/Brown Spots Change Relative to 2 Week Data (Week 8, self assessment): −18.95%
Fine Wrinkles Change Relative to 2 Week Data (Week 8, self assessment): −23.60%
Skin Color Change Relative to 2 Week Data (Week 8, self assessment): −18.28%
Skin Texture Change Relative to 2 Week Data (Week 8, self assessment): −15.58%
overall improvement, change relative to 2 week data (Week 8, self assessment): −16.25%
Blotchiness/Brown Spots [8]: 2.26*
Fine Wrinkles [8]: 2.00*
Overall Improvement [8]: 1.97*
Skin Color [8]: 2.23*
Skin Texture [8]: 1.91*
Acne Change Relative to Baseline (Week 12): −45.00%
Coarse Wrinkles Change Relative to Baseline (Week 12): −13.75%
Erythema Change Relative to Baseline (Week 12): −66.67%%
Mottled Hyperpigmentation Change Relative to Baseline (Week 12): −40.68%
Roughness Change Relative to Baseline (Week 12): −83.64%
Skin Irritation Change Relative to Baseline (Week 12): 0
Skin Moisture Change Relative to Baseline (Week 12): 41.21%
TEWL Change Relative to Baseline (Week 12): −27.79%
Skin Moisture (Week 12): 165.42* arbitrary units
TEWL (Week 12): 9.54* g/m^2/hr
Fine Wrinkles Change Relative to Baseline (Week 12, investigator): −27.63%
Acne [9]: 0.32*
Coarse Wrinkles [9]: 2.03*
Erythema [9]: 0.21*
Fine Wrinkles [9]: 1.62*
Mottled Hyperpigmentation [9]: 1.03*
Roughness [9]: 0.26*
Skin Irritation [9]: 0
Blotchiness/Brown Spots Change Relative to 2 Week Data (Week 12, self assessment): −23.16%
Fine Wrinkles Change Relative to 2 Week Data (Week 12, self assessment): −28.09%
Skin Color Change Relative to 2 Week Data (Week 12, self assessment): −22.58%
Skin Texture Change Relative to 2 Week Data (Week 12, self assessment): −23.38%
overall improvement, change relative to 2 week data (Week 12, self assessment): −18.75%
Blotchiness/Brown Spots [10]: 2.15*
Fine Wrinkles [10]: 1.88*
Overall Improvement [10]: 1.91*
Skin Color [10]: 2.12*
Skin Texture [10]: 1.74*
Skin irritation or other adverse effects (over the 12 week study period): not observed
